Experimental data reported in patent US12723063B2, “GIPR-agonist compounds” (Eli Lilly and Company, priority 2019, dated 2026).
*1 amine or outer side, *2 acyl side, *3 side chain or, on linkers, in order; H or OH if unused. Where a SMILES comes first, the peptide text is derived from it. Side-chain parts run from the residue outwards. [ ]: non-standard residue; d: D form. The star is where a group is joined. C20 diacid = O=C(O)CCCCCCCCCCCCCCCCCCC(=O)*; γGlu = O=C(O)[C@H](CCC(=O)[*:2])N[*:1]; αMeL = CC(C)C[C@](C)(N)C(=O)O; AEEA = NCCOCCOCC(=O)O; Aib = CC(C)(N)C(=O)O

Experiments:
[1] = target: T1, human glucagon receptor (GcgR) (Homo sapiens, UniProt P47871); experiment: cAMP functional assay (HTRF) in HEK293 cells in presence of 0.1% casein; type: cell-based; settings: HEK293 cells expressing human GcgR, geometric mean, read-out: hGcgR cAMP Rel EC50 nM (SEM, n)
T1 construct: expressed in transfected cells; host or cells: HEK293
T1 sequence (P47871 26-477): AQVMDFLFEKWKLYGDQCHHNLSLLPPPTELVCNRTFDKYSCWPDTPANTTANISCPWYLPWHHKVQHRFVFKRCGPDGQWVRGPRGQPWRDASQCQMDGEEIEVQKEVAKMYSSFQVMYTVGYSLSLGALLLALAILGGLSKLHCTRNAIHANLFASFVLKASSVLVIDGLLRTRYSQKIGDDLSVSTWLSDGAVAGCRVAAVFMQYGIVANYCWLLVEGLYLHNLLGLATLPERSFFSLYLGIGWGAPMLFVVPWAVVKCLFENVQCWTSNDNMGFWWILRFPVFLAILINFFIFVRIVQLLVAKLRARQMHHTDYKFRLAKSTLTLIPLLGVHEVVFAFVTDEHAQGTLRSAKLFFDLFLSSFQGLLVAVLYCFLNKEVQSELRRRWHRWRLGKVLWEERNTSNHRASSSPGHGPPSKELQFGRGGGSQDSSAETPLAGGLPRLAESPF

[2] = target: T2, human glucose-dependent insulinotropic peptide receptor (GIPR) (Homo sapiens, UniProt P48546); experiment: as above; type: cell-based; settings: HEK293 cells expressing human GIPR, geometric mean, read-out: hGIPR cAMP Rel EC50 nM (SEM, n)
T2 construct: expressed in transfected cells; host or cells: HEK293
T2 sequence (P48546 22-466): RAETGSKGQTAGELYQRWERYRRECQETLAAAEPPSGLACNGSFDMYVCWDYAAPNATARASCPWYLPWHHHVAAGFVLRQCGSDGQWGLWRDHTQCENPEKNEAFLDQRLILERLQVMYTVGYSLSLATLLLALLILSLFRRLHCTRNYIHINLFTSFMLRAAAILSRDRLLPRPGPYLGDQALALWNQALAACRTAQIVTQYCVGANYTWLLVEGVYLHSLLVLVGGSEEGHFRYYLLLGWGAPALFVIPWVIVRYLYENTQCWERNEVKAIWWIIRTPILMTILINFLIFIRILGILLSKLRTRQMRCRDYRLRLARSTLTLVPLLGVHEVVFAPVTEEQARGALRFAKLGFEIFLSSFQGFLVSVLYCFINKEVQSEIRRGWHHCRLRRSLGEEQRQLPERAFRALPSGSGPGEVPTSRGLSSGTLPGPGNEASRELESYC

| Compound | EC50 [1] | EC50 [2] |
| --- | --- | --- |
| CC[C@H](C)[C@H](NC(=O)[C@H](Cc1ccccc1)NC(=O)[C@@H](NC(=O)CNC(=O)[C@H](CCC(=O)O)NC(=O)C(C)(C)NC(=O)[C@@H](N)Cc1ccc(O)cc1)[C@@H](C)O)C(=O)N[C@@H](CO)C(=O)N[C@@H](CC(=O)O)C(=O)N[C@@H](Cc1ccc(O)cc1)C(=O)N[C@@H](CO)C(=O)N[C@H](C(=O)N[C@@](C)(CC(C)C)C(=O)N[C@@H](CC(C)C)C(=O)N[C@@H](CC(=O)O)C(=O)N[C@@H](CCCCN)C(=O)N[C@@H](CCCCNC(=O)COCCOCCNC(=O)COCCOCCNC(=O)CC[C@H](NC(=O)CCCCCCCCCCCCCCCCCCC(=O)O)C(=O)O)C(=O)N[C@@H](Cc1c[nH]cn1)C(=O)N[C@@H](CCC(N)=O)C(=O)NC(C)(C)C(=O)N[C@@H](CC(=O)O)C(=O)N[C@@H](Cc1ccccc1)C(=O)N[C@H](C(=O)N[C@@H](CCC(=O)O)C(=O)N[C@@H](Cc1c[nH]c2ccccc12)C(=O)N[C@@H](CC(C)C)C(=O)N[C@@H](CC(C)C)C(=O)N[C@@H](CCC(=O)O)C(=O)N[C@H](C(=O)NCC(=O)N1CCC[C@H]1C(=O)N[C@@H](CO)C(=O)N[C@@H](CO)C(=O)NCC(=O)N[C@@H](C)C(=O)N1CCC[C@H]1C(=O)N1CCC[C@H]1C(=O)N1CCC[C@H]1C(=O)N[C@@H](CO)C(N)=O)[C@@H](C)O)C(C)C)[C@@H](C)CC [Example 71] (H-Y[Aib]EGTFISDYSI[αMeL]LDKK([AEEA-AEEA-γGlu-C20 diacid])HQ[Aib]DFVEWLLETGPSSGAPPPS-NH2) | 581 nM | 0.0721 nM |
| CC[C@H](C)[C@H](NC(=O)[C@H](CC(C)C)NC(=O)[C@@H](NC(=O)CNC(=O)[C@H](CCC(=O)O)NC(=O)C(C)(C)NC(=O)[C@@H](N)Cc1ccc(O)cc1)[C@@H](C)O)C(=O)N[C@@H](CO)C(=O)N[C@@H](CC(=O)O)C(=O)N[C@@H](Cc1ccc(O)cc1)C(=O)N[C@@H](CO)C(=O)N[C@H](C(=O)N[C@@](C)(CC(C)C)C(=O)N[C@@H](CC(C)C)C(=O)N[C@@H](CC(=O)O)C(=O)N[C@@H](CCCCN)C(=O)N[C@@H](CCCCNC(=O)COCCOCCNC(=O)COCCOCCNC(=O)CC[C@H](NC(=O)CCCCCCCCCCCCCCCCCCC(=O)O)C(=O)O)C(=O)N[C@@H](Cc1c[nH]cn1)C(=O)N[C@@H](CCC(N)=O)C(=O)NC(C)(C)C(=O)N[C@@H](CCC(=O)O)C(=O)N[C@@H](Cc1ccccc1)C(=O)N[C@H](C(=O)N[C@@H](CCC(=O)O)C(=O)N[C@@H](Cc1ccc(O)cc1)C(=O)N[C@@H](CC(C)C)C(=O)N[C@@H](CC(C)C)C(=O)N[C@@H](CCC(=O)O)C(=O)N[C@H](C(=O)NCC(=O)N1CCC[C@H]1C(=O)N[C@@H](CO)C(=O)N[C@@H](CO)C(=O)NCC(=O)N[C@@H](C)C(=O)N1CCC[C@H]1C(=O)N1CCC[C@H]1C(=O)N1CCC[C@H]1C(=O)N[C@@H](CO)C(N)=O)[C@@H](C)O)C(C)C)[C@@H](C)CC [Example 72] (H-Y[Aib]EGTLISDYSI[αMeL]LDKK([AEEA-AEEA-γGlu-C20 diacid])HQ[Aib]EFVEYLLETGPSSGAPPPS-NH2) | > 5000 nM | 0.0182 nM |
